In PMC8786148, “The effects of magainin 2-derived and rationally designed antimicrobial peptides on Mycoplasma pneumoniae” (PLoS ONE, 2022):
Marks after values point to notes of the source that are not given here.

Key:
[1] = previously reported; cited from earlier work
[2] = tested on: M. pneumoniae strains FH, M52, Mac, Bru, and M129-B7; assay: Propidium iodide (PI) uptake assay, membrane disruption; format: cell-based, Mycoplasma pneumoniae; conditions: 10 μmol/L AMP, PI 5 μg/mL in PBS, triplicate
Method: We performed the PI uptake assays based on the previously described method with modification for M. pneumoniae. M. pneumoniae strains FH, M52, Mac, Bru, and M129-B7 were cultured as described above. Briefly, the 90 mL culture was done in PPLO-based medium for 6 days to observe the medium color change from red to yellow. The mycoplasma in the culture medium was centrifuged at 11,740g for 30 min at 4°C, and the precipitation was suspended in 20 mL phosphate buffered saline (PBS) by passing through a 60 mm-length 25-gauge needle (Top Corporation, Tokyo, Japan) three times. The suspension was centrifuged again at 11,740g for 30 min at 4°C, and 2.25 mL PBS was added to the precipitation. The 2× mycoplasma suspension was prepared by passing through a 60 mm-length 25-gauge needle five times. When using heat-killed M. pneumoniae (HKMp), the 2× suspension was heated at 95°C for 10 min. The 2× PI assay reaction mix based on PBS containing 20 μmol/L of an antimicrobial peptide or saline, and 10 μg/mL PI (Dojindo, Tokyo, Japan). Each assay was performed with a 96-well black flat-bottomed plate (PerkinElmer, Waltham, MA, USA) using a final cell volume of 100 μL prepared by mixing 2× mycoplasma suspension and 2× PI assay reaction mix at 1:1 in volume ratio. The intercalation fluorescence of PI was measured by using an Infinite 200 Pro F Plex microplate reader (Tecan, Zürich, Switzerland) every 2 min, with an excitation filter at 535 nm (half width: 25 nm) and an emission filter at 620 nm (half width: 20 nm). The averages and standard deviations of the fluorescent intensities was calculated, and normalised by an average fluorescence between 10 and 20 min of HKMp as 100% relative fluorescence, and by a minimum average fluorescence between 0 and 20 min of whole data as 0% relative fluorescence.

Escherichia coli = tested on: Escherichia coli; set-up: method as in PMID 28789896, PMID 31303986, PMID 33369262; conditions: previously reported; cited from earlier work
Staphylococcus aureus = tested on: Staphylococcus aureus; set-up: method as in PMID 28789896, PMID 31303986, PMID 33369262; conditions: previously reported; cited from earlier work
[3] = tested on: Staphylococcus epidermidis; set-up: method as in PMID 28789896, PMID 31303986, PMID 33369262; conditions: previously reported; cited from earlier work
Mycoplasma pneumoniae FH [4] = assay: Killing assay, strain FH; conditions: 30 μmol/L AMP, 3 days; for Killing assay result compared with saline: Welch's t test, p < 0.005; for Cell numbers (CFU/mL) after treatment with antimicrobial peptides, killing assay: initial 10^6 CFU/mL, triplicate, mean, saline 3.59×10^6
Mycoplasma pneumoniae FH [5] = assay: Biofilm assay (crystal violet, absorbance at 550 nm), strain FH; conditions: initial 10^5 CFU/mL; for Concentration with statistically significant effect in the biofilm assay: 0% CO2, 6-8 days at 37°C, p < 0.005, Shirley-Williams test; for Effect in the biofilm assay: 0% CO2, up to 30 μmol/L
Pseudomonas aeruginosa = tested on: Pseudomonas aeruginosa; set-up: method as in PMID 28789896, PMID 31303986, PMID 33369262; conditions: previously reported; cited from earlier work
[6] = tested on: Mycoplasma pneumoniae M129-B7; assay: Killing assay, strain M129-B7; conditions: AMP 30 μmol/L, 3 days, initial 10^6 CFU/mL, triplicate, mean, saline 3.79×10^6
[7] = tested on: Mycoplasma pneumoniae Mac; assay: Killing assay, strain Mac; conditions: AMP 30 μmol/L, 3 days, initial 10^6 CFU/mL, triplicate, mean, saline 4.19×10^6
[8] = tested on: Mycoplasma pneumoniae Mac; assay: Colorimetric and biofilm assays, strain Mac; conditions: biofilm assay, p < 0.005
[9] = tested on: Mycoplasma pneumoniae M52; assay: Killing assay, strain M52; conditions: AMP 30 μmol/L, 3 days, initial 10^6 CFU/mL, triplicate, mean, saline 3.62×10^6
[10] = tested on: Mycoplasma pneumoniae Bru; assay: Colorimetric and biofilm assays, strain Bru; conditions: biofilm assay, p < 0.005
[11] = tested on: Mycoplasma pneumoniae M129-B7; assay: Colorimetric and biofilm assays, strain M129-B7; format: cell-based; conditions: strain M129-B7; biofilm assay; p < 0.005
[12] = tested on: Mycoplasma pneumoniae Bru; assay: Killing assay, strain Bru; conditions: AMP 30 μmol/L, 3 days, initial 10^6 CFU/mL, triplicate, mean, saline 3.48×10^6
[13] = tested on: Mycoplasma pneumoniae M52; assay: Colorimetric and biofilm assays, strain M52; conditions: up to 30 μmol/L, Shirley-Williams test
[14] = five strains, read every 2 min up to 20 min
[15] = strains FH, M129-B7, and M52, up to 20 min

| Substance | Haemolysis (concentration with haemolytic effect) [1] [µmol/L] | PI fluorescence compared with live Mp without peptide [2, 14] | MIC, Gram-negative, E. c. (Escherichia coli) [µM] | MIC, Gram-positive, S. a. (Staphylococcus aureus) [µM] | MIC, Gram-positive, S. e [3] [µM] | Killing assay result compared with saline (Mycoplasma pneumoniae FH [4]) | Cell numbers (CFU/mL) after treatment with antimicrobial peptides, killing assay (Mycoplasma pneumoniae FH [4]) | Concentration with statistically significant effect in the biofilm assay (Mycoplasma pneumoniae FH [5]) [µmol/L] | MIC, Gram-negative, P. a. (Pseudomonas aeruginosa) [µM] | PI fluorescence compared with live Mp without peptide [2, 15] | Effect in the biofilm assay (Mycoplasma pneumoniae FH [5]) | Titre (CFU/mL), killing assay [6] | Titre (CFU/mL), killing assay [7] | Concentration with statistically significant effect in the biofilm assay [8] [µmol/L] | Titre (CFU/mL), killing assay [9] | Concentration with statistically significant effect in the biofilm assay [10] [µmol/L] | Concentration with statistically significant effect in the biofilm assay [11] [µmol/L] | Titre (CFU/mL), killing assay [12] | Effect in the biofilm assay [13] |
| --- | --- | --- | --- | --- | --- | --- | --- | --- | --- | --- | --- | --- | --- | --- | --- | --- | --- | --- | --- |
| H-GIGKFLHSZKKFGKZFV-NH2 [17base-Ac6c, Mag2-17base derivative with 1-aminocyclohexylcarboxylic acid (Ac6c) insertions] | 3 | the fluorescence arose | 3.13 | 3.13 | 3.13 | significant difference | 1.11×10^6 CFU/mL | 30 | 6.25 |  |  |  |  |  |  |  |  |  |  |
| H-GIGKFLHSUKKFGKUFV-NH2 [17base-Aib, Mag2-17base derivative with 2-aminoisobutyric acid (Aib) insertions] | >100 | slight fluorescent shift | 3.13 | 12.5 | 3.13 | limited influence on the growth | 3.75×10^6 CFU/mL |  | 1.56 | fluorescence of live Mp without any peptides were higher | no difference |  |  |  |  |  |  |  |  |
| H-KLLKKAGKLLKKAGKLLKKAG-NH2 [Stripe, rationally designed AMP, helical structure and positions of positively charged lysine residues] |  |  | 3.13 | 12.5 | 1.56 | limited influence on the growth | 3.71×10^6 CFU/mL |  | 1.56 | fluorescence of live Mp without any peptides were higher | no difference |  |  |  |  |  |  |  |  |
| H-KKKLAKLKLGAKLKLKGKLGA-NH2 [Random, rationally designed AMP, helical structure and positions of positively charged lysine residues] |  | fluorescence of live Mp without any peptides were higher | 12.5 | 100 | 6.25 | limited influence on the growth | 4.93×10^6 CFU/mL |  | 3.13 |  | no difference |  |  |  |  |  |  |  |  |
| H-GIKKFLKSZKKFVKZFK-NH2 [17base-Hybrid] |  | the fluorescence arose | 3.13 | 3.13 | 1.56 | significant difference | 3.50×10^5 CFU/mL | 8 | 3.13 |  |  | 2.21×10^5 ^b CFU/mL | 5.80×10^4 ^b CFU/mL | ≤ 30 | 1.16×10^5 ^b CFU/mL | ≤ 30 | ≤ 30 | 1.46×10^5 ^b CFU/mL | slight drop of biofilm production |
